From patent US8524691B2, “Phosphonated rifamycins and uses thereof for the prevention and treatment of bone and joint infections” (The Medicines Company, priority 2008, dated 2013)
≈ marks a conversion by molar mass, not a printed value. Like-named read-outs stand apart in the source and are kept apart here.

Key:
[1] = tested on: S. aureus ATCC 13709^A, Novobiocin and Rifampicin resistant variant; assay: Antibacterial susceptibility (MIC), NCCLS broth microdilution; type: cell-based
Protocol: (§1) Susceptibility of S. aureus strains to the known antibiotics and synthesized compounds was determined by following the guidelines set by NCCLS (M26-A). Compounds were diluted two-fold serially in DMSO and transferred to cation-adjusted Mueller Hinton broth (CAMHB; Becton Dickinson). 50 μL of compounds diluted in CAMHB was mixed with 100 μL of bacteria diluted in CAMHB in 96-well microtiter plates. The final concentration of micro-organisms in the assay was 5×10^5c.f.u. per mL and the final concentration of DMSO in the assay was 1.25%. Assays were set up in duplicate and incubated at 37° C. for 18 h. The lowest concentration of compound that inhibited visible growth was reported as the minimum inhibitory concentration (MIC).

S. aureus ATCC 29213 = assay: as above; type: cell-based
Protocol: as §1

S. aureus ATCC 13709 [2] = assay: microbe, parasite or virus in culture; type: cell-based; conditions: for Antibacterial activity (in words, from Table 1): S. aureus MIC
Protocol: as §1

S. aureus ATCC 13709 [3] = assay: microbe, parasite or virus in culture; type: cell-based; conditions: for Serum dependence of antibacterial activity (in words): MIC with versus without serum
Protocol: as §1
Susceptibility testing experiments were also carried out in the presence of serum. These experiments were carried out similar to the susceptibility testing with the following modifications. 75 μL of compounds diluted in CAMHB was mixed with 75 μL of bacteria diluted in 100% serum from any given source (commercial pooled mouse serum (MS) and human serum (HS), Equitech-Bio Inc.) or diluted in 8% purified human serum albumin (HSA) (Calbiochem). The final concentration of animal serum in the assay was 50% and the final concentration of purified human serum albumin in the assay was 4%; the concentrations of all other components were identical to those described for susceptibility testing.

[4] = type: in vitro ADME; conditions: for % Conversion (prodrug converted to parent drug after binding to bone): 24 h incubation, 37° C.
Protocol: Amounts of parent drug “regenerated” from the phosphonated prodrug were measured as follows. Washed bone powder-bound prodrugs from the above experiment were resuspended in 400 μL PBS+2% DMSO or in 400 μL 50% (v/v in PBS+2% DMSO) human or rat serum. The suspension was incubated overnight at 37° C., centrifuged at 13,000 rpm for 2 min and the supernatant was recovered. The amount of regenerated parent drug in the supernatant was determined by measurements using the microbiological assay that was previously described for the prodrugs themselves. The amount of prodrug was deduced from standard curves of known amounts of parent drug that were used as reference for each experiment. The amount of regenerated drug assessed by this bioassay was corroborated by MIC determination. The percentage of drug regenerated in PBS or serum after the overnight incubation (Table 2) was deduced from the difference between the amount of bound prodrug and the amount of regenerated drug (not shown).

Row | SMILES | Minimum inhibitory concentration, S. aureus ATCC 13709^A [1] [µg/mL] | Minimum inhibitory concentration, S. aureus ATCC 29213 (S. aureus ATCC 29213; CAMHB, 37° C., 18 h) [µg/mL] | Minimum inhibitory concentration, S. aureus ATCC 13709 (S. aureus ATCC 13709 [2]; CAMHB, 37° C., 18 h) [µg/mL] | Antibacterial activity (in words, from Table 1) (S. aureus ATCC 13709 [2]) | Minimum inhibitory concentration, ATCC 13709 + 50% Human Serum (S. aureus ATCC 13709 [3]; 50% Human Serum) [µg/mL] | Minimum inhibitory concentration, ATCC 13709 + 50% Mouse Serum (S. aureus ATCC 13709 [3]; 50% Mouse Serum) [µg/mL] | Minimum inhibitory concentration, ATCC 13709 + 50% Rat Serum (S. aureus ATCC 13709 [3]; 50% Rat Serum) [µg/mL] | Release of parent rifabutin from bone powder-bound prodrug (in words) [4] | % Conversion (prodrug converted to parent drug after binding to bone) ([4]; 50% Heat Inactivated Rat Serum) [%] | % Conversion (prodrug converted to parent drug after binding to bone) ([4]; 50% Rat Serum) [%] | % Conversion (prodrug converted to parent drug after binding to bone) ([4]; PBS) [%] | Serum dependence of antibacterial activity (in words) (S. aureus ATCC 13709 [3]) | Minimum inhibitory concentration, S. aureus ATCC 29213 (S. aureus ATCC 29213) [µg/mL] | Minimum inhibitory concentration, S. aureus ATCC 13709 (S. aureus ATCC 13709 [2]) [µg/mL] | Minimum inhibitory concentration, ATCC 13709 + 50% Human Serum (S. aureus ATCC 13709 [3]) [µg/mL] | Minimum inhibitory concentration, ATCC 13709 + 50% Mouse Serum (S. aureus ATCC 13709 [3]) [µg/mL] | Minimum inhibitory concentration, ATCC 13709 + 50% Rat Serum (S. aureus ATCC 13709 [3]) [µg/mL]
1 | CO[C@H]1/C=C/O[C@@]2(C)Oc3c(C)c(O)c4c(c3C2=O)C2=NC3(CCN(CC(C)C)CC3)N(C(=O)Oc3ccc(NC(=O)CCC(P(=O)(O)O)P(=O)(O)O)cc3)C2=C(NC(=O)/C(C)=C\C=C\[C@H](C)[C@H](O)[C@@H](C)[C@@H](O)[C@@H](C)[C@H](OC(C)=O)[C@@H]1C)C4=O [Compound 28] | >128 | 0.5 (≈ 0.412 µM) | 0.5 (≈ 0.412 µM) | very low MICs whether in the absence or in the presence of serum | 0.25 | 2 | 0.0625 | release significant amounts of the parent rifabutin once bound to bone powder, regardless of the presence of serum | 0.07 ± 0.02 | 0.06 ± 0.01 | 0.06 ± 0.01 | – | – | – | – | – | –
2 | CO[C@H]1/C=C/O[C@@]2(C)Oc3c(C)c(O)c4c(c3C2=O)C2=NC3(CCN(CC(C)C)CC3)NC2=C(NC(=O)/C(C)=C\C=C\[C@H](C)[C@H](OC(=O)CN(C)CCOC(=O)CCC(P(=O)(O)O)P(=O)(O)O)[C@@H](C)[C@@H](O)[C@@H](C)[C@H](OC(C)=O)[C@@H]1C)C4=O [Compound 36] | >128 | 2 (≈ 1.68 µM) | 2 (≈ 1.68 µM) | – | 2 | 1 | 0.0625 | release significant amounts of the parent rifabutin once bound to bone powder, regardless of the presence of serum | 0.07 | 0.07 | 0.07 | significant increase in antibacterial activity in serum | – | – | – | – | –
3 | CCC(=O)Oc1ccc(P(=O)(O)CP(=O)(O)O)cc1C(C)(C)CC(=O)N[C@@H](Cc1ccccc1)C(=O)N(C)CC(=O)O[C@@H]1[C@@H](C)[C@@H](O)[C@@H](C)[C@H](OC(C)=O)[C@H](C)[C@@H](OC)/C=C/O[C@@]2(C)Oc3c(C)c(O)c4c(c3C2=O)C2=NC3(CCN(CC(C)C)CC3)NC2=C(NC(=O)/C(C)=C\C=C\[C@@H]1C)C4=O.CCN(CC)CC.CCN(CC)CC [Compound 128] | >128 | – | – | near complete loss of activity | – | – | – | – | – | – | – | – | >128 | >128 | >128 | >128 | >128
4 | CCC(=O)Oc1cc(C)c(OCCCCC(P(=O)(O)O)P(=O)(O)O)c(C)c1CCC(=O)N[C@@H](Cc1ccccc1)C(=O)N(C)CC(=O)O[C@@H]1[C@@H](C)[C@@H](O)[C@@H](C)[C@H](OC(C)=O)[C@H](C)[C@@H](OC)/C=C/O[C@@]2(C)Oc3c(C)c(O)c4c(c3C2=O)C2=NC3(CCN(CC(C)C)CC3)NC2=C(NC(=O)/C(C)=C\C=C\[C@@H]1C)C4=O.N.N [Compound 138] | >128 | – | – | near complete loss of activity | – | – | – | – | – | – | – | – | >128 | >128 | >128 | >128 | >128
5 | CO[C@H]1/C=C/O[C@@]2(C)Oc3c(C)c(O)c4c(c3C2=O)C2=NC3(CCN(CC(C)C)CC3)NC2=C(NC(=O)/C(C)=C\C=C\[C@H](C)[C@H](OC(=O)CN(C)C(=O)NC(P(=O)(O)O)P(=O)(O)O)[C@@H](C)[C@@H](O)[C@@H](C)[C@H](OC(C)=O)[C@@H]1C)C4=O [Compound 140] | >128 | 16 (≈ 14.1 µM) | 16 (≈ 14.1 µM) | – | 128 | 32 | 4 | – | – | – | – | weak antibacterial activity does not show a serum dependence | – | – | – | – | –
6 | CCN(CC)CC.CO[C@H]1/C=C/O[C@@]2(C)Oc3c(C)c(O)c4c(c3C2=O)C2=NC3(CCN(CC(C)C)CC3)NC2=C(NC(=O)/C(C)=C\C=C\[C@H](C)[C@H](OC(=O)CNC(=O)Nc2ccc(CC(P(=O)(O)O)P(=O)(O)O)cc2)[C@@H](C)[C@@H](O)[C@@H](C)[C@H](OC(C)=O)[C@@H]1C)C4=O [Compound 142a] | >128 | 16 | 16 | – | 128 | 16 | 2 | – | – | – | – | weak antibacterial activity does not show a serum dependence | – | – | – | – | –
7 | CCN(CC)CC.CO[C@H]1/C=C/O[C@@]2(C)Oc3c(C)c(O)c4c(c3C2=O)C2=NC3(CCN(CC(C)C)CC3)NC2=C(NC(=O)/C(C)=C\C=C\[C@H](C)[C@H](OC(=O)CN(C)CC(=O)NC(P(=O)(O)O)P(=O)(O)O)[C@@H](C)[C@@H](O)[C@@H](C)[C@H](OC(C)=O)[C@@H]1C)C4=O [Compound 147] | >128 | 128 | 128 | near complete loss of activity | 16 | 2 | 32 | – | – | – | – | – | – | – | – | – | –
8 | CO[C@H]1/C=C/O[C@@]2(C)Oc3c(C)c(O)c4c(c3C2=O)C2=NC3(CCN(CC(C)C)CC3)NC2=C(NC(=O)/C(C)=C\C=C\[C@H](C)[C@H](OC(=O)CN(C)CC(=O)Nc2ccc(CC(P(=O)(O)O)P(=O)(O)O)cc2)[C@@H](C)[C@@H](O)[C@@H](C)[C@H](OC(C)=O)[C@@H]1C)C4=O [Compound 150] | >128 | 64 (≈ 51.6 µM) | 64 (≈ 51.6 µM) | – | – | 128 | 16 | – | – | – | – | – | – | – | >128 | – | –
9 | CO[C@H]1/C=C/O[C@@]2(C)Oc3c(C)c(O)c4c(c3C2=O)C2=NC3(CCN(CC(C)C)CC3)NC2=C(NC(=O)/C(C)=C\C=C\[C@H](C)[C@H](OC(=O)CNC(=O)CCCNC(=O)NC(P(=O)(O)O)P(=O)(O)O)[C@@H](C)[C@@H](O)[C@@H](C)[C@H](OC(C)=O)[C@@H]1C)C4=O.N.N [Compound 155] | >128 | 128 | 32 | near complete loss of activity | 128 | – | 8 | – | – | – | – | – | – | – | – | >128 | –
